± gives the uncertainty stated by the source.
Experiment: xn = mol fraction of the nth substance listed
Conditions: 101 kPa

CC(O)CCO (stereo not given) + NCCN
viscosity [mPa·s]
Conditions | 298.15 K | 303.15 K | 308.15 K | 313.15 K | 318.15 K
x1 = 0.0339 | 1.64 ± 0.04 | 1.4 ± 0.03 | 1.3 ± 0.03 | 1.21 ± 0.03 | 1.04 ± 0.02
x1 = 0.069 | 1.98 ± 0.04 | 1.66 ± 0.04 | 1.56 ± 0.03 | 1.42 ± 0.03 | 1.23 ± 0.03
x1 = 0.1053 | 2.43 ± 0.05 | 2.01 ± 0.04 | 1.82 ± 0.04 | 1.7 ± 0.04 | 1.42 ± 0.03
x1 = 0.1429 | 3.03 ± 0.06 | 2.47 ± 0.05 | 2.24 ± 0.05 | 2.05 ± 0.04 | 1.71 ± 0.04
x1 = 0.1819 | 3.82 ± 0.08 | 3.07 ± 0.07 | 2.73 ± 0.06 | 2.54 ± 0.05 | 2.05 ± 0.04
x1 = 0.2223 | 4.9 ± 0.1 | 3.88 ± 0.08 | 3.4 ± 0.07 | 3.08 ± 0.07 | 2.49 ± 0.05
x1 = 0.2642 | 6.37 ± 0.14 | 4.97 ± 0.11 | 4.3 ± 0.09 | 3.85 ± 0.08 | 3.09 ± 0.07
x1 = 0.3078 | 8.35 ± 0.18 | 6.46 ± 0.14 | 5.45 ± 0.12 | 4.85 ± 0.1 | 3.81 ± 0.08
x1 = 0.353 | 11.2 ± 0.2 | 8.5 ± 0.18 | 7.1 ± 0.15 | 6.21 ± 0.13 | 4.83 ± 0.1
x1 = 0.4001 | 15.1 ± 0.3 | 11.2 ± 0.2 | 9.15 ± 0.19 | 7.91 ± 0.17 | 6.04 ± 0.13
x1 = 0.4491 | 20.4 ± 0.4 | 14.9 ± 0.3 | 12 ± 0.3 | 10.2 ± 0.2 | 7.56 ± 0.16
x1 = 0.5001 | 27.3 ± 0.6 | 19.6 ± 0.4 | 15.4 ± 0.3 | 13.1 ± 0.3 | 9.61 ± 0.2
x1 = 0.5533 | 36 ± 0.8 | 25.4 ± 0.5 | 19.7 ± 0.4 | 16.4 ± 0.3 | 12 ± 0.3
x1 = 0.6088 | 46.1 ± 1 | 32.1 ± 0.7 | 24.8 ± 0.5 | 20.4 ± 0.4 | 14.8 ± 0.3
x1 = 0.6667 | 56.3 ± 1.2 | 39.4 ± 0.8 | 29.9 ± 0.6 | 24.5 ± 0.5 | 18.2 ± 0.4
x1 = 0.7273 | 66.7 ± 1.4 | 47.4 ± 1 | 35.9 ± 0.8 | 28.7 ± 0.6 | 21.5 ± 0.5
x1 = 0.7908 | 77.5 ± 1.7 | 56 ± 1.2 | 41.7 ± 0.9 | 32.4 ± 0.7 | 24.4 ± 0.5
x1 = 0.8572 | 85.7 ± 1.9 | 62 ± 1.3 | 46.2 ± 1 | 35.8 ± 0.8 | 26.9 ± 0.6
x1 = 0.9269 | 91.6 ± 2.1 | 66.1 ± 1.4 | 49.3 ± 1 | 38.2 ± 0.8 | 28.6 ± 0.6

c1ccncc1 + O
viscosity [mPa·s]
Conditions | 298.15 K | 303.15 K | 308.15 K | 313.15 K | 318.15 K
x1 = 0.0201 | 1.122 ± 0.0096 | 0.9952 ± 0.0087 | 0.8906 ± 0.008 | 0.8042 ± 0.0076 | 0.7251 ± 0.007
x1 = 0.0503 | 1.379 ± 0.011 | 1.214 ± 0.0098 | 1.078 ± 0.009 | 0.9651 ± 0.0083 | 0.8727 ± 0.0077
x1 = 0.0701 | 1.532 ± 0.011 | 1.342 ± 0.01 | 1.187 ± 0.0095 | 1.058 ± 0.0087 | 0.9504 ± 0.0081
x1 = 0.0999 | 1.725 ± 0.013 | 1.505 ± 0.011 | 1.325 ± 0.01 | 1.175 ± 0.0093 | 1.05 ± 0.0086
x1 = 0.1203 | 1.837 ± 0.013 | 1.6 ± 0.012 | 1.405 ± 0.011 | 1.244 ± 0.0097 | 1.11 ± 0.0089
x1 = 0.1499 | 1.972 ± 0.014 | 1.713 ± 0.012 | 1.501 ± 0.011 | 1.326 ± 0.01 | 1.18 ± 0.0093
x1 = 0.1701 | 2.05 ± 0.014 | 1.778 ± 0.013 | 1.556 ± 0.011 | 1.373 ± 0.01 | 1.22 ± 0.0095
x1 = 0.1999 | 2.139 ± 0.015 | 1.853 ± 0.013 | 1.619 ± 0.012 | 1.426 ± 0.011 | 1.266 ± 0.0098
x1 = 0.2201 | 2.189 ± 0.015 | 1.897 ± 0.013 | 1.657 ± 0.012 | 1.467 ± 0.011 | 1.302 ± 0.01
x1 = 0.2502 | 2.235 ± 0.015 | 1.934 ± 0.014 | 1.688 ± 0.012 | 1.485 ± 0.011 | 1.316 ± 0.01
x1 = 0.2701 | 2.253 ± 0.015 | 1.949 ± 0.014 | 1.701 ± 0.012 | 1.496 ± 0.011 | 1.326 ± 0.01
x1 = 0.2999 | 2.265 ± 0.016 | 1.96 ± 0.014 | 1.711 ± 0.012 | 1.505 ± 0.011 | 1.334 ± 0.01
x1 = 0.3198 | 2.26 ± 0.016 | 1.957 ± 0.014 | 1.709 ± 0.012 | 1.504 ± 0.011 | 1.333 ± 0.01
x1 = 0.35 | 2.235 ± 0.015 | 1.937 ± 0.014 | 1.694 ± 0.012 | 1.492 ± 0.011 | 1.324 ± 0.01
x1 = 0.4002 | 2.15 ± 0.015 | 1.87 ± 0.013 | 1.64 ± 0.012 | 1.45 ± 0.011 | 1.289 ± 0.01
x1 = 0.4499 | 2.023 ± 0.014 | 1.77 ± 0.013 | 1.56 ± 0.012 | 1.384 ± 0.01 | 1.236 ± 0.0097
x1 = 0.5002 | 1.871 ± 0.013 | 1.648 ± 0.012 | 1.461 ± 0.011 | 1.304 ± 0.01 | –
x1 = 0.5998 | 1.559 ± 0.012 | 1.395 ± 0.011 | 1.255 ± 0.0098 | 1.134 ± 0.0091 | –
x1 = 0.7002 | 1.297 ± 0.01 | 1.177 ± 0.0094 | 1.073 ± 0.0088 | 0.9812 ± 0.0083 | –
x1 = 0.8004 | 1.109 ± 0.0091 | 1.018 ± 0.0085 | 0.9375 ± 0.0081 | 0.8659 ± 0.0077 | –
x1 = 0.8999 | 0.983 ± 0.0084 | 0.9101 ± 0.0079 | 0.8448 ± 0.0076 | 0.7862 ± 0.0072 | –

— the CheMixHub viscosity set
